From PubChem BioAssay (NCI)
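At the GI50, growth is halved. TGI marks complete inhibition of growth.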

Assays:
Test in all cases: growth of human tumour cells (NCI), 384-well format
786-0 renal = system: 786-0 renal
A498 renal = system: A498 renal
A549 NSCLC = system: A549 NSCLC
ACHN renal = system: ACHN renal
BT-549 breast = system: BT-549 breast
CAKI-1 renal = system: CAKI-1 renal
CCRF-CEM leukemia = system: CCRF-CEM leukemia
COLO 205 colon = system: COLO 205 colon
DU-145 prostate = system: DU-145 prostate
EKVX NSCLC = system: EKVX NSCLC
HCC-2998 colon = system: HCC-2998 colon
HCT-116 colon = system: HCT-116 colon
HCT-15 colon = system: HCT-15 colon
HL-60(TB) leukemia = system: HL-60(TB) leukemia
HOP-62 NSCLC = system: HOP-62 NSCLC
HOP-92 NSCLC = system: HOP-92 NSCLC
HS 578T breast = system: HS 578T breast
HT29 colon = system: HT29 colon
IGROV1 ovarian = system: IGROV1 ovarian
K-562 leukemia = system: K-562 leukemia
KM12 colon = system: KM12 colon
LOX IMVI melanoma = system: LOX IMVI melanoma
M14 melanoma = system: M14 melanoma
MALME-3M melanoma = system: MALME-3M melanoma
MCF7 breast = system: MCF7 breast
MDA-MB-435 melanoma = system: MDA-MB-435 melanoma
MDA-MB-468 breast = system: MDA-MB-468 breast
MOLT-4 leukemia = system: MOLT-4 leukemia
NCI-H226 lung = system: NCI-H226 lung
NCI-H23 lung = system: NCI-H23 lung
NCI-H322M lung = system: NCI-H322M lung
NCI-H460 NSCLC = system: NCI-H460 NSCLC
NCI-H522 lung = system: NCI-H522 lung
NCI/ADR-RES ovarian = system: NCI/ADR-RES ovarian
OVCAR-3 ovarian = system: OVCAR-3 ovarian
OVCAR-4 ovarian = system: OVCAR-4 ovarian
OVCAR-8 ovarian = system: OVCAR-8 ovarian
PC-3 prostate = system: PC-3 prostate
RPMI-8226 leukemia = system: RPMI-8226 leukemia
RXF 393 renal = system: RXF 393 renal
SF-268 CNS = system: SF-268 CNS
SF-295 CNS = system: SF-295 CNS
SF-539 CNS = system: SF-539 CNS
SK-MEL-2 melanoma = system: SK-MEL-2 melanoma
SK-MEL-28 melanoma = system: SK-MEL-28 melanoma
SK-MEL-5 melanoma = system: SK-MEL-5 melanoma
SK-OV-3 ovarian = system: SK-OV-3 ovarian
SN12C renal = system: SN12C renal
SNB-19 CNS = system: SNB-19 CNS
SNB-75 CNS = system: SNB-75 CNS
SW-620 colon = system: SW-620 colon
TK-10 renal = system: TK-10 renal
U251 glioblastoma = system: U251 glioblastoma
UACC-257 melanoma = system: UACC-257 melanoma
UACC-62 melanoma = system: UACC-62 melanoma

Cc1ccc(S(=O)(=O)Oc2ccc3sc4c(CO)ccc(NCCN(C)C)c4c(=O)c3c2)cc1
GI50 ([…]-0 renal): 1850 nM | TGI (786-0 renal): 3270 nM | GI50 (A498 renal): 1980 nM | TGI (A498 renal): 3410 nM | GI50 (A549 NSCLC): 1840 nM | TGI (A549 NSCLC): 3280 nM | GI50 (ACHN renal): 1890 nM | TGI (ACHN renal): 3330 nM | GI50 (BT-549 breast): 1890 nM | TGI (BT-549 breast): 3310 nM | GI50 (CAKI-1 renal): 1900 nM | TGI (CAKI-1 renal): 3340 nM | GI50 (CCRF-CEM leukemia): 1620 nM | TGI (CCRF-CEM leukemia): 2990 nM | GI50 (COLO 205 colon): 2140 nM | TGI (COLO 205 colon): 3600 nM | GI50 (DU-145 prostate): 2090 nM | TGI (DU-145 prostate): 3540 nM | GI50 (EKVX NSCLC): 1880 nM | TGI (EKVX NSCLC): 3300 nM | GI50 (HCC-2998 colon): 1940 nM | TGI (HCC-2998 colon): 3360 nM | GI50 (HCT-116 colon): 2140 nM | TGI (HCT-116 colon): 3620 nM | GI50 (HCT-15 colon): 2070 nM | TGI (HCT-15 colon): 3530 nM | GI50 (HL-60(TB) leukemia): 1590 nM | TGI (HL-60(TB) leukemia): 2950 nM | GI50 (HOP-62 NSCLC): 2080 nM | TGI (HOP-62 NSCLC): 3520 nM | GI50 (HOP-92 NSCLC): 2120 nM | TGI (HOP-92 NSCLC): 3570 nM | GI50 (HS 578T breast): 2010 nM | TGI (HS 578T breast): 3450 nM | GI50 (HT29 colon): 1800 nM | TGI (HT29 colon): 3210 nM | GI50 (IGROV1 ovarian): 1790 nM | TGI (IGROV1 ovarian): 3180 nM | GI50 (K-562 leukemia): 1910 nM | TGI (K-562 leukemia): 3330 nM | GI50 (KM12 colon): 1870 nM | TGI (KM12 colon): 3300 nM | GI50 (LOX IMVI melanoma): 1710 nM | TGI (LOX IMVI melanoma): 3110 nM | GI50 (M14 melanoma): 2160 nM | TGI (M14 melanoma): 3610 nM | GI50 (MALME-3M melanoma): 2150 nM | TGI (MALME-3M melanoma): 3610 nM | GI50 (MCF7 breast): 1720 nM | TGI (MCF7 breast): 3110 nM | GI50 (MDA-MB-435 melanoma): 2130 nM | TGI (MDA-MB-435 melanoma): 3570 nM | GI50 (MDA-MB-468 breast): 3820 nM | TGI (MDA-MB-468 breast): 5270 nM | GI50 (MOLT-4 leukemia): 1790 nM | TGI (MOLT-4 leukemia): 3180 nM | GI50 (NCI-H226 lung): 1470 nM | TGI (NCI-H226 lung): 2800 nM | GI50 (NCI-H23 lung): 2030 nM | TGI (NCI-H23 lung): 3460 nM | GI50 (NCI-H322M lung): 2120 nM | TGI (NCI-H322M lung): 3570 nM | GI50 (NCI-H460 NSCLC): 1900 nM | TGI (NCI-H460 NSCLC): 3340 nM | GI50 (NCI-H522 lung): 2200 nM | TGI (NCI-H522 lung): 3660 nM | GI50 (NCI/ADR-RES ovarian): 2060 nM | TGI (NCI/ADR-RES ovarian): 3500 nM | GI50 (OVCAR-3 ovarian): 1970 nM | TGI (OVCAR-3 ovarian): 3390 nM | GI50 (OVCAR-4 ovarian): 2240 nM | TGI (OVCAR-4 ovarian): 3700 nM | GI50 (OVCAR-8 ovarian): 1630 nM | TGI (OVCAR-8 ovarian): 3020 nM | GI50 (PC-3 prostate): 2010 nM | TGI (PC-3 prostate): 3450 nM | GI50 (RPMI-8226 leukemia): 1920 nM | TGI (RPMI-8226 leukemia): 3330 nM | GI50 (RXF 393 renal): 1990 nM | TGI (RXF 393 renal): 3420 nM | GI50 (SF-268 CNS): 2200 nM | TGI (SF-268 CNS): 3660 nM | GI50 (SF-295 CNS): 1960 nM | TGI (SF-295 CNS): 3380 nM | GI50 (SF-539 CNS): 2080 nM | TGI (SF-539 CNS): 3540 nM | GI50 (SK-MEL-2 melanoma): 2070 nM | TGI (SK-MEL-2 melanoma): 3510 nM | GI50 (SK-MEL-28 melanoma): 2160 nM | TGI (SK-MEL-28 melanoma): 3620 nM | GI50 (SK-MEL-5 melanoma): 1640 nM | TGI (SK-MEL-5 melanoma): 3020 nM | GI50 (SK-OV-3 ovarian): 1940 nM | TGI (SK-OV-3 ovarian): 3380 nM | GI50 (SN12C renal): 1640 nM | TGI (SN12C renal): 3010 nM | GI50 (SNB-19 CNS): 2210 nM | TGI (SNB-19 CNS): 3690 nM | GI50 (SNB-75 CNS): 2350 nM | TGI (SNB-75 CNS): 3820 nM | GI50 (SW-620 colon): 1840 nM | TGI (SW-620 colon): 3270 nM | GI50 (TK-10 renal): 1990 nM | TGI (TK-10 renal): 3410 nM | GI50 (U251 glioblastoma): 2220 nM | TGI (U251 glioblastoma): 3700 nM | GI50 (UACC-257 melanoma): 2840 nM | TGI (UACC-257 melanoma): 4320 nM | GI50 (UACC-62 melanoma): 2100 nM | TGI (UACC-62 melanoma): 3560 nM
